Converted amounts (≈) assume the structure as drawn.
Key:
[1] = system: Trichophyton rubrum KD-1130; test: Antifungal activity evaluation test: minimum inhibitory concentration (MIC), broth dilution by reference to CLSI M38-A2; type: cell-based; conditions: KD1130, read-out: MIC (T. rubrum)
How it was run: (§1)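 Broth microdilution after CLSI M38-A2: 2-fold DMSO dilution series in MOPS-buffered RPMI 1640 pH 7.0, inoculum 2×10^3 cells/mL final. Incubated 35° C for 4 days; MIC (μg/mL) is lowest concentration giving visually ≥80% growth inhibition versus growth control.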

[2] = system: Trichophyton mentagrophytes SM-110; test: as above; type: cell-based; conditions: SM110, read-out: MIC (T. menta.)
How it was run: as §1

SMILES | MIC [1] [mg/L] | MIC [2] [mg/L]
Cc1nn2c(c1-c1cccnc1Oc1ccc(C(F)(F)F)cc1)OCC2 [I-232, 6-methyl-7-{2-[4-(trifluoromethyl)phenoxy]pyridin-3-yl}-2,3-dihydropyrazolo[1,5-b]oxazole] | 0.2 to 0.78 (≈ 0.554 to 2.16 µM) | 0.2 to 0.78 (≈ 0.554 to 2.16 µM)
Cc1nn2c(c1-c1cccnc1Oc1ccc(C(F)(F)F)cc1)OCCCC2 [I-233, 2-methyl-3-{2-[4-(trifluoromethyl)phenoxy]pyridin-3-yl}-5,6,7,8-tetrahydropyrazolo[1,5-b][1,3]oxazepine] | 0.2 to 0.78 (≈ 0.514 to 2 µM) | 0.2 to 0.78 (≈ 0.514 to 2 µM)
COc1ccncc1-c1cccnc1Oc1ccc(Cl)cc1 [I-235, 2-(4-chlorophenoxy)-4′-methoxy-3,3′-bipyridine] | 0.2 to 0.78 (≈ 0.639 to 2.49 µM) | 0.2 to 0.78 (≈ 0.639 to 2.49 µM)
COc1ccncc1-c1cccnc1Oc1ccc(F)cc1 [I-236, 2-(4-fluorophenoxy)-4′-methoxy-3,3′-bipyridine] | 1.56 to 6.25 (≈ 5.26 to 21.1 µM) | 1.56 to 6.25 (≈ 5.26 to 21.1 µM)
COc1ccncc1-c1cccnc1Oc1ccc(S(F)(F)(F)(F)F)cc1 [I-240, 4′-methoxy-2-[4-(pentafluorosulfanyl)phenoxy]-3,3′-bipyridine] | ≤ 0.1 | ≤ 0.1
COc1ccncc1-c1cccnc1Oc1ccc(SC)cc1 [I-241, 4′-methoxy-2-[4-(methylthio)phenoxy]-3,3′-bipyridine] | ≤ 0.1 | ≤ 0.1
COc1ccc(Oc2ncccc2-c2cnccc2OC)cc1 [I-242, 4′-methoxy-2-(4-methoxyphenoxy)-3,3′-bipyridine] | 1.56 to 6.25 (≈ 5.06 to 20.3 µM) | 0.2 to 0.78 (≈ 0.649 to 2.53 µM)
COc1ccncc1-c1cccnc1Oc1ccc(C(C)=O)cc1 [I-244] | 1.56 to 6.25 (≈ 4.87 to 19.5 µM) | 1.56 to 6.25 (≈ 4.87 to 19.5 µM)
COc1ccncc1-c1cccnc1Oc1ccc(C(C)C)cc1 [I-255, 2-(4-isopropylphenoxy)-4′-methoxy-3,3′-bipyridine] | ≤ 0.1 | ≤ 0.1
C=Cc1ccc(Oc2ncccc2-c2cnccc2OC)cc1 [I-258, 4′-methoxy-2-(4-vinylphenoxy)-3,3′-bipyridine] | ≤ 0.1 | ≤ 0.1
COc1ccncc1-c1cccnc1Oc1ccc(C#C[Si](C)(C)C)cc1 [I-259, 4′-methoxy-2-{4-[(trimethylsilyl)ethynyl]phenoxy}-3,3′-bipyridine] | 0.2 to 0.78 (≈ 0.534 to 2.08 µM) | 0.2 to 0.78 (≈ 0.534 to 2.08 µM)
CCc1cccc(Oc2ncccc2-c2cnccc2OC)c1 [I-265, 2-(3-ethylphenoxy)-4′-methoxy-3,3′-bipyridine] | 0.2 to 0.78 (≈ 0.653 to 2.55 µM) | 0.2 to 0.78 (≈ 0.653 to 2.55 µM)
COc1ccccc1-c1cccnc1Oc1ccc2c(c1)CCCC2 [I-268, 3-(2-methoxyphenyl)-2-[(5,6,7,8-tetrahydronaphthalen-2-yl)oxy]pyridine] | ≤ 0.1 | ≤ 0.1
COc1ccccc1-c1cccnc1Oc1ccc2c(c1)C(=O)CCC2 [I-273, 7-{[3-(2-methoxyphenyl)pyridin-2-yl]oxy}-3,4-dihydronaphthalen-1(2H)-one] | ≤ 0.1 | ≤ 0.1
CCOCCc1ccc(Oc2ncccc2-c2cnccc2OC)cc1 [I-274, 2-[4-(2-ethoxyethyl)phenoxy]-4′-methoxy-3,3′-bipyridine] | 0.2 to 0.78 (≈ 0.571 to 2.23 µM) | 0.2 to 0.78 (≈ 0.571 to 2.23 µM)
COCC(C)(C)c1ccc(Oc2ncccc2-c2cnccc2OC)cc1 [I-275, 4′-methoxy-2-[4-(1-methoxy-2-methylpropan-2-yl)phenoxy]-3,3′-bipyridine] | 0.2 to 0.78 (≈ 0.549 to 2.14 µM) | 0.2 to 0.78 (≈ 0.549 to 2.14 µM)
COc1ncccc1-c1cccnc1Oc1ccc(OCc2ccccc2)cc1 [I-277, 2-[4-(benzyloxy)phenoxy]-2′-methoxy-3,3′-bipyridine] | ≤ 0.1 | ≤ 0.1
CCC(=O)OCCc1ccc(Oc2ncccc2-c2cnccc2OC)cc1 [I-278, 4-{[4′-methoxy-3,3′-bipyridin)-2-yl]oxy}phenethyl propionate] | 0.2 to 0.78 (≈ 0.529 to 2.06 µM) | 0.2 to 0.78 (≈ 0.529 to 2.06 µM)
CCc1ccc(Oc2ncccc2-c2cncnc2OC)cc1 [I-282, 5-[2-(4-ethylphenoxy)pyridin-3-yl]-4-methoxypyrimidine] | ≤ 0.1 | ≤ 0.1
CCc1ccc(Oc2ncccc2-c2cncc(F)c2OC)cc1 [I-283, 2-(4-ethylphenoxy)-5′-fluoro-4′-methoxy-3,3′-bipyridine] | ≤ 0.1 | ≤ 0.1
CCc1ccc(Oc2ncccc2-c2cncc(Cl)c2OC)cc1 [I-284, 5′-chloro-2-(4-ethylphenoxy)-4′-methoxy-3,3′-bipyridine] | ≤ 0.1 | ≤ 0.1

The next lines start with the values.

MIC [1] [mg/L] | MIC [2] [mg/L] | SMILES
≤ 0.1 | ≤ 0.1 | COc1ccncc1-c1cccnc1Oc1ccc(Br)cc1 [I-234, 2-(4-bromophenoxy)-4′-methoxy-3,3′-bipyridine]
≤ 0.1 | ≤ 0.1 | COc1ccncc1-c1cccnc1Oc1ccc(OC(F)(F)F)cc1 [I-237, 4′-methoxy-2-[4-(trifluoromethoxy)phenoxy]-3,3′-bipyridine]
0.2 to 0.78 (≈ 0.581 to 2.27 µM) | 0.2 to 0.78 (≈ 0.581 to 2.27 µM) | COc1ccncc1-c1cccnc1Oc1ccc(OC(F)F)cc1 [I-238, 2-[4-(difluoromethoxy)phenoxy]-4′-methoxy-3,3′-bipyridine]
0.2 to 0.78 (≈ 0.529 to 2.06 µM) | 0.2 to 0.78 (≈ 0.529 to 2.06 µM) | COc1ccncc1-c1cccnc1Oc1ccc(SC(F)(F)F)cc1 [I-239, 4′-methoxy-2-{4-[(trifluoromethyl)thio]phenoxy}-3,3′-bipyridine]
0.2 to 0.78 (≈ 0.659 to 2.57 µM) | 0.2 to 0.78 (≈ 0.659 to 2.57 µM) | COc1ccncc1-c1cccnc1Oc1ccc(C#N)cc1 [I-243, 4-{[4′-methoxy-(3,3′-bipyridin)-2-yl]oxy}benzonitrile]
≤ 0.1 | ≤ 0.1 | CCOC(=O)c1ccc(Oc2ncccc2-c2cnccc2OC)cc1 [I-245]
1.56 to 6.25 (≈ 5.09 to 20.4 µM) | 1.56 to 6.25 (≈ 5.09 to 20.4 µM) | COc1ccncc1-c1cccnc1Oc1ccc(C=O)cc1 [I-246]
1.56 to 6.25 (≈ 2.94 to 11.8 µM) | 1.56 to 6.25 (≈ 2.94 to 11.8 µM) | COc1ccncc1-c1cccnc1Oc1ccc(C(OS(=O)(=O)c2ccc(C)cc2)C(F)(F)F)cc1 (stereo not shown) [I-248]
0.2 to 0.78 (≈ 0.555 to 2.16 µM) | 0.2 to 0.78 (≈ 0.555 to 2.16 µM) | COc1ccncc1-c1cccnc1Oc1ccc(CC(F)(F)F)cc1 [I-249, 4′-methoxy-2-[4-(2,2,2-trifluoroethyl)phenoxy]-3,3′-bipyridine]
1.56 to 6.25 (≈ 4.84 to 19.4 µM) | 1.56 to 6.25 (≈ 4.84 to 19.4 µM) | COCc1ccc(Oc2ncccc2-c2cnccc2OC)cc1 [I-251, 4′-methoxy-2-[4-(methoxymethyl)phenoxy]-3,3′-bipyridine]
0.2 to 0.78 (≈ 0.684 to 2.67 µM) | 0.2 to 0.78 (≈ 0.684 to 2.67 µM) | COc1ccncc1-c1cccnc1Oc1ccc(C)cc1 [I-252, 4′-methoxy-2-(p-tolyloxy)-3,3′-bipyridine]
≤ 0.1 | ≤ 0.1 | CCc1ccc(Oc2ncccc2-c2cnccc2OC)cc1 [I-253, 2-(4-ethylphenoxy)-4′-methoxy-3,3′-bipyridine]
≤ 0.1 | ≤ 0.1 | CCCc1ccc(Oc2ncccc2-c2cnccc2OC)cc1 [I-254, 4′-methoxy-2-(4-propylphenoxy)-3,3′-bipyridine]
≤ 0.1 | ≤ 0.1 | CCC(C)c1ccc(Oc2ncccc2-c2cnccc2OC)cc1 (stereo not shown) [I-256, 2-[4-(sec-butyl)phenoxy]-4′-methoxy-3,3′-bipyridine]
≤ 0.1 | 0.2 to 0.78 (≈ 0.662 to 2.58 µM) | C#Cc1ccc(Oc2ncccc2-c2cnccc2OC)cc1 [I-260, 2-(4-ethynylphenoxy)-4′-methoxy-3,3′-bipyridine]
≤ 0.1 | ≤ 0.1 | COc1ccncc1-c1cccnc1Oc1ccc(C2CC2)cc1 [I-261, 2-(4-cyclopropylphenoxy)-4′-methoxy-3,3′-bipyridine]
0.2 to 0.78 (≈ 0.653 to 2.55 µM) | 0.2 to 0.78 (≈ 0.653 to 2.55 µM) | COc1ccncc1-c1cccnc1Oc1ccc(C)c(C)c1 [I-262, 2-(3,4-dimethylphenoxy)-4′-methoxy-3,3′-bipyridine]
≤ 0.1 | ≤ 0.1 | CCc1ccc(Oc2ncccc2-c2cnccc2OC)cc1C [I-263, 2-(4-ethyl-3-methylphenoxy)-4′-methoxy-3,3′-bipyridine]
≤ 0.1 | ≤ 0.1 | CCc1cc(Oc2ncccc2-c2cnccc2OC)ccc1C [I-264, 2-(3-ethyl-4-methylphenoxy)-4′-methoxy-3,3′-bipyridine]
≤ 0.1 | ≤ 0.1 | COc1ccncc1-c1cccnc1Oc1ccc2c(c1)CCC2 [I-266, 2-[(2,3-dihydro-1H-inden-5-yl)oxy]-4′-methoxy-3,3′-bipyridine]
≤ 0.1 | ≤ 0.1 | COc1ccncc1-c1cccnc1Oc1ccc2c(c1)CCCC2 [I-267, 4′-methoxy-[(5,6,7,8-tetrahydronaphthalen-2-yl)oxy]-3,3′-bipyridine]
≤ 0.1 | ≤ 0.1 | COc1ncccc1-c1cccnc1Oc1ccc2c(c1)CCCC2 [I-269, 2-methoxy-2′-[(5,6,7,8-tetrahydronaphthalen-2-yl)oxy]-3,3′-bipyridine]
≤ 0.1 | ≤ 0.1 | COc1ncccc1-c1cccnc1Oc1ccc2c(c1)CCC2 [I-270, 2-[(2,3-dihydro-1H-inden-5-yl)oxy]-2′-methoxy-3,3′-bipyridine]
≤ 0.1 | ≤ 0.1 | COc1ncncc1-c1cccnc1Oc1ccc2c(c1)CCCC2 [I-271, 4′-methoxy-5-{2-[(5,6,7,8-tetrahydronaphthalen-2-yl)oxy]pyridin-3-yl}pyrimidine]
≤ 0.1 | ≤ 0.1 | COc1ncccc1-c1cccnc1Oc1ccc2c(c1)CCCC2=O [I-272, 6-{[2′-methoxy-(3,3-bipyridin)-2-yl]oxy}-3,4-dihydronaphthalen-1(2H)-one]
0.2 to 0.78 (≈ 0.552 to 2.15 µM) | 0.2 to 0.78 (≈ 0.552 to 2.15 µM) | COCC1(c2ccc(Oc3ncccc3-c3cnccc3OC)cc2)CC1 [I-276, 4′-methoxy-2-{4-[1-(methoxymethyl)cyclopropyl]phenoxy}-3,3′-bipyridine]
0.2 to 0.78 (≈ 0.549 to 2.14 µM) | 0.2 to 0.78 (≈ 0.549 to 2.14 µM) | COC(=O)CCc1ccc(Oc2ncccc2-c2cnccc2OC)cc1 [I-279, methyl 3-(4-{[4′-methoxy-3,3′-bipyridin-2-yl]oxy}phenyl)propionate]
≤ 0.1 | ≤ 0.1 | CCc1ccc(Oc2ncccc2-c2cccnc2OC)cc1 [I-280, 2-(4-ethylphenoxy)-2′-methoxy-3,3′-bipyridine]
≤ 0.1 | ≤ 0.1 | CCc1ccc(Oc2ncccc2-c2ccncc2OC)cc1 [I-281, 2-(4-ethylphenoxy)-3′-methoxy-3,4′-bipyridine]

— patent US10647675B2 (priority 2015, dated 2020)
